Measured values reported in article PMC3549253, “Effect of repetitive lysine–tryptophan motifs on the bactericidal activity of antimicrobial peptides” (Amino Acids, 2012).
Read-outs that look alike come from different tables or passages of the source.

Tests used:
[1] = system: S. aureus CCARM 3114; assay: microbe, parasite or virus in culture; assay type: cell-based, Staphylococcus aureus; details: drug-resistant strain, 2 × 10^5 CFU/ml, 24 h at 37° C, average of 3–4 independent experiments
Excerpt: (§1) Escherichia coli (KCTC 1682), Salmonella typhimurium (KCTC 1926), Pseudomonas aeruginosa (KCTC 1637), Staphylococcus aureus (KCTC 1621), Bacillus subtilis (KCTC 1918), and Listeria monocytogenes (KCTC 3710) were obtained from the Korean Collection for Type Cultures (KCTC). Drug-resistant E. coli strains (CCARM 1229 and CCARM 1238), S. typhimurium strains (CCARM 8007, CCARM 8009, and CCARM 8013), and S. aureus strains (CCARM 3089, CCARM 3090, CCARM 3108, CCARM 3114, and CCARM 3126) were from the Culture Collection of Antibiotic-Resistant Microbes (CCARM) at Seoul Women’s University, Korea.
(§2) The antibacterial activities of the peptides against Gram-negative, Gram-positive and antibiotic-resistant bacterial strains were evaluated using the microbroth dilution method (Park et al. [2003]). Aliquots of culture medium containing bacterial suspensions in mid-logarithmic phase at a concentration of 2 × 10^5 colony forming units (CFU)/ml were added to each well of a multiwell plate containing peptide solution serially diluted 2× in 10 mM sodium phosphate buffer (pH 7.2) or phosphate-buffered saline (PBS, 1.5 mM KH2PO4, 2.7 mM KCl, 8.1 mM Na2HPO4, 150 mM NaCl, pH 7.2). Growth inhibition was evaluated by measuring the absorbance at 620 nm using a Versa-Max microplate Elisa Reader (Molecular Devices Co., Sunnyvale, CA, USA) after 24 h of incubation at 37° C. […] All MIC measurements were the average of 3–4 independent experiments.

[2] = system: S. aureus CCARM 3090; assay: microbe, parasite or virus in culture; assay type: cell-based, Staphylococcus aureus; details: drug-resistant strain, 2 × 10^5 CFU/ml, 24 h at 37° C, average of 3–4 independent experiments
Excerpt: as §1, §2

[3] = system: S. aureus CCARM 3089; assay: microbe, parasite or virus in culture; assay type: cell-based, Staphylococcus aureus; details: drug-resistant strain, 2 × 10^5 CFU/ml, 24 h at 37° C, average of 3–4 independent experiments
Excerpt: as §1, §2

[4] = system: S. aureus CCARM 3108; assay: microbe, parasite or virus in culture; assay type: cell-based, Staphylococcus aureus; details: drug-resistant strain, 2 × 10^5 CFU/ml, 24 h at 37° C, average of 3–4 independent experiments
Excerpt: as §1, §2

[5] = system: S. aureus CCARM 3126; assay: microbe, parasite or virus in culture; details: drug-resistant strain, 2 × 10^5 CFU/ml, 24 h at 37° C, average of 3–4 independent experiments
Excerpt: as §1
(§3) The antibacterial activities of the peptides against Gram-negative, Gram-positive and antibiotic-resistant bacterial strains were evaluated using the microbroth dilution method (Park et al. [2003]). Aliquots of culture medium containing bacterial suspensions in mid-logarithmic phase at a concentration of 2 × 10^5 colony forming units (CFU)/ml were added to each well of a multiwell plate containing peptide solution serially diluted 2× in 10 mM sodium phosphate buffer (pH 7.2) or phosphate-buffered saline (PBS, 1.5 mM KH2PO4, 2.7 mM KCl, 8.1 mM Na2HPO4, 150 mM NaCl, pH 7.2). Growth inhibition was evaluated by measuring the absorbance at 620 nm using a Versa-Max microplate Elisa Reader (Molecular Devices Co., Sunnyvale, CA, USA) after 24 h of incubation at 37° C.

[6] = system: S. typhimurium CCARM 8009; assay: microbe, parasite or virus in culture; assay type: cell-based, Salmonella typhimurium; details: drug-resistant strain, 2 × 10^5 CFU/ml, 24 h at 37° C, average of 3–4 independent experiments, read-out: MIC
Excerpt: as §1, §2

[7] = system: S. typhimurium CCARM 8013; assay: microbe, parasite or virus in culture; assay type: cell-based, Salmonella typhimurium; details: drug-resistant strain, 2 × 10^5 CFU/ml, 24 h at 37° C, average of 3–4 independent experiments, read-out: MIC
Excerpt: as §1, §2

[8] = system: S. typhimurium CCARM 8007; assay: microbe, parasite or virus in culture; assay type: cell-based, Salmonella typhimurium; details: drug-resistant strain, 2 × 10^5 CFU/ml, 24 h at 37° C, average of 3–4 independent experiments, read-out: MIC
Excerpt: as §1, §2

[9] = system: all 16 microbial strains; assay: Mean MIC over all strains and therapeutic index; assay type: cell-based; details: MIC values in PBS from all 16 microbial strains; 400 μM used when no activity at 200 μM
Procedure: as §3

[10] = system: E. coli CCARM 1238; assay: microbe, parasite or virus in culture; assay type: cell-based, Escherichia coli; details: drug-resistant strain, 2 × 10^5 CFU/ml, 24 h at 37° C, average of 3–4 independent experiments
Excerpt: as §1, §2

[11] = 10 mM sodium phosphate buffer, pH 7.2
[12] = PBS, pH 7.2 (number in parentheses)

CC[C@H](C)[C@H](NC(=O)CN)C(=O)NCC(=O)N[C@@H](C)C(=O)N[C@H](C(=O)N[C@@H](CC(C)C)C(=O)N[C@@H](CCCCN)C(=O)N[C@H](C(=O)N[C@@H](CC(C)C)C(=O)N[C@H](C(=O)N[C@H](C(=O)NCC(=O)N[C@@H](CC(C)C)C(=O)N1CCC[C@H]1C(=O)N[C@@H](C)C(=O)N[C@@H](CC(C)C)C(=O)N[C@H](C(=O)N[C@@H](CO)C(=O)N[C@@H](Cc1c[nH]c2ccccc12)C(=O)N[C@H](C(=O)N[C@@H](CCCCN)C(=O)N[C@@H](CCCNC(=N)N)C(=O)N[C@@H](CCCCN)C(=O)N[C@@H](CCCNC(=N)N)C(=O)N[C@@H](CCC(N)=O)C(=O)N[C@@H](CCC(N)=O)C(N)=O)[C@@H](C)CC)[C@@H](C)CC)[C@@H](C)O)[C@@H](C)O)C(C)C)C(C)C [Melittin, reference compound]
12.5 µM: MIC [6, 12] | MIC [8, 12]
6.25 µM: MIC [6, 11] | MIC [7, 12] | MIC [8, 11]
3.12 µM: MIC [7, 11]
3.6 µM: GM (geometric mean of MIC values) [9]
3.12 (3.12) μM: MIC [1, 11] | MIC [1, 12] | MIC [2, 11] | MIC [2, 12]
1.56 (1.56) μM: MIC [3, 11] | MIC [3, 12] | MIC [4, 11] | MIC [4, 12] | MIC [5, 11] | MIC [5, 12] | MIC [10, 11] | MIC [10, 12]
